Data as given in PMC8595825 (Journal of medicinal chemistry, 2021).

Assays:
[1] = test system: M. bovis BCG; format: cell-based, Mycobacterium bovis BCG
[2] = test system: Vero (African Green Monkey kidney epithelial cells); experiment: Cytotoxicity against mammalian Vero cells; format: cell-based; conditions: IC50 Vero/MIC50 Mtb
[3] = test system: M. bovis BCG; format: cell-based, Mycobacterium bovis BCG; remark: listed apart in the source
[4] = test system: nutrient-starved M. tuberculosis H37Rv; experiment: Loebel model, nutrient-starved nonreplicating cultures; format: cell-based, Mycobacterium tuberculosis H37Rv; conditions: 40× MIC90 (64 μM); 7 days
[5] = test system: M. bovis BCG cell membrane; format: cell-based, Mycobacterium bovis BCG; conditions: 4× MIC90 (1.2 μM); for membrane depolarizing effect: after 8 h of exposure; for time at which red/green fluorescence ratio significantly decreased: coincided with onset of cell death
[6] = test system: piniBAC promoter; format: cell-based, Mycobacterium bovis BCG; conditions: 0.4–25 μM, 24 h
[7] = test system: reactive oxygen species (ROS) in M. bovis BCG; format: cell-based, Mycobacterium bovis BCG; conditions: for dose-dependent ROS production: 0.25×–2× MIC90, 90 min; for ROS levels at higher dose: 2× MIC90
[8] = test system: pfurA promoter; format: cell-based, Mycobacterium bovis BCG; conditions: 0.5× to 2× MIC90, 24 h
[9] = test system: M. bovis BCG; format: cell-based, Mycobacterium bovis BCG; conditions: 32 at its MIC90 + vitamin C 2.5 mM, 5 days
[10] = test system: M. bovis BCG; format: cell-based, Mycobacterium bovis BCG; conditions: N-acetylcysteine, TEMPO, thiourea
[11] = molecular target: NDH2 in IMVs of M. smegmatis mc^2155 (Mycolicibacterium smegmatis, UniProt A0QYD6); experiment: NADH oxidation in inverted membrane vesicles; format: biochemical; conditions: KCN, 20 mM
Sequence of NDH2 in IMVs of M. smegmatis mc^2155 (A0QYD6 1-457): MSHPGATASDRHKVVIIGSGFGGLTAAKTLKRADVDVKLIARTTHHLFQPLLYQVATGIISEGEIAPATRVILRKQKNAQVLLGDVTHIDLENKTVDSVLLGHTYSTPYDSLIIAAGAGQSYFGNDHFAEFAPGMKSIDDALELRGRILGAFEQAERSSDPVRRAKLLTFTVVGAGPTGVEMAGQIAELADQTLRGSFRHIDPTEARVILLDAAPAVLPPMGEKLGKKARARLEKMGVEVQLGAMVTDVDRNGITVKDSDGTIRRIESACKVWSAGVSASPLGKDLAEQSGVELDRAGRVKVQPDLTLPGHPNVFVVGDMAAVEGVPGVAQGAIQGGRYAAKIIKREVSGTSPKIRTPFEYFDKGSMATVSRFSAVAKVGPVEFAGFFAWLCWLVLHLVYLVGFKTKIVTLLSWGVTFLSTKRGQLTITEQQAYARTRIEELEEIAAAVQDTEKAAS

[12] = test system: M. smegmatis mc^2155 IMVs; experiment: Oxygen consumption and hydrogen peroxide production by IMVs; format: biochemical
[13] = test system: M. smegmatis IMVs; experiment: Transmembrane pH gradient dissipation in IMVs; format: biochemical; conditions: 1 and 2 μM
[14] = Metabolic stability in rat microsomes; format: in vitro ADME
[15] = mini-Ames test; format: cell-based
[16] = In vivo pharmacokinetics in mice; conditions: mouse; for bioavailability: po, 50 mg/kg
[17] = test system: M. bovis BCG cell membrane; conditions: for membrane permeabilizing effect: 4× MIC90, after 8 h of exposure; for time at which permeabilization was observed: 4× MIC90, attributed to onset of cell death
[18] = test system: M. bovis BCG katG mutant strain; format: cell-based, Mycobacterium bovis BCG

Compound: CCCCCCCCn1c2c([n+](CCCC)c1C)C(=O)c1ccccc1C2=O.[Br-] [compound 32]
- pMIC90 [1]: > 0.5
- SI (selectivity index) [2]: > 25
- time-kill outcome ([3]; 8× MIC90, 28 days): CFUs were not detected from day 21 onward
- bactericidal effect, Loebel model [4]: substantially reduced CFUs to levels equivalent to or below the detection limit
- membrane depolarizing effect [5]: Neither compound induced depolarizing or permeabilizing effects
- time at which red/green fluorescence ratio significantly decreased [5]: 48 h
- piniBAC promoter activity (fluorescence) [6]: no increase in fluorescence
- dose-dependent ROS production [7]: duly observed
- pfurA activation (fluorescence) [8]: induced dose-dependent increases in fluorescence
- Log10 CFU counts with vitamin C added [9]: nearly halved
- effect of antioxidants on growth inhibitory MIC BCG [10]: did not diminish the growth inhibitory potency
- stimulation of NADH oxidation with cyanide [11]: retained the ability to stimulate NADH oxidation
- oxygen consumption in IMVs energized by NADH compared to malate [12]: ~ 1.8 fold
- protonophore activity (pH gradient dissipation) [13]: only moderate rates of pH gradient dissipation
- half-life [14]: 0.333 to 0.383 h
- mutagenicity, mini-Ames test [15]: not mutagenic
- Vd [16]: 27 to 35 L/kg
- clearance [16]: 38 to 55 mL/min/kg
- half-life [16]: 7 to 10 h
- bioavailability [16]: 1 to 2%
- membrane permeabilizing effect [17]: Neither compound induced depolarizing or permeabilizing effects
- time at which permeabilization was observed [17]: 24 h

Compound: CCCCCC[n+]1c2c(n(CC(C)C)c1C)C(=O)c1ccccc1C2=O.[Br-] [compound 34]
- pMIC90 [1]: > 0.5

Compound: CCCCCCCC[n+]1c2c(n(CC(C)C)c1C)C(=O)c1ccccc1C2=O.[Br-] [compound 35]
- pMIC90 [1]: > 0.5

Compound: CCCCCCCn1c2c([n+](CCCCC)c1C)C(=O)c1ccccc1C2=O.[Br-] [compound 48]
- pMIC90 [1]: > 0.5
- SI (selectivity index) [2]: > 25
- bactericidal effect, Loebel model [4]: substantially reduced CFUs to levels equivalent to or below the detection limit
- membrane depolarizing effect [5]: Neither compound induced depolarizing or permeabilizing effects
- time at which red/green fluorescence ratio significantly decreased [5]: 24 h
- piniBAC promoter activity (fluorescence) [6]: no increase in fluorescence
- dose-dependent ROS production [7]: duly observed
- pfurA activation (fluorescence) [8]: induced dose-dependent increases in fluorescence
- membrane permeabilizing effect [17]: Neither compound induced depolarizing or permeabilizing effects
- time at which permeabilization was observed [17]: 48 h

Compound: CCCCCCn1c2c([n+](CCCCCC)c1C)C(=O)c1ccccc1C2=O.[Br-] [compound 50]
- pMIC90 [1]: > 0.5

Compound: CCCCn1c2c([n+](C3CCC4(CCCCC4)CC3)c1C)C(=O)c1ccccc1C2=O.[Br-] [compound 61]
- piniBAC promoter activity (fluorescence) [6]: no increase in fluorescence
- dose-dependent ROS production [7]: duly observed
- pfurA activation (fluorescence) [8]: induced dose-dependent increases in fluorescence
- activity against katG mutant strain [18]: a shift to lower MICs was not evident
- half-life [14]: 0.333 to 0.383 h
- mutagenicity, mini-Ames test [15]: not mutagenic
- Vd [16]: 27 to 35 L/kg
- clearance [16]: 38 to 55 mL/min/kg
- half-life [16]: 7 to 10 h
- bioavailability [16]: 1 to 2%

Compound: CCCCCCn1c(C)nc2c1C(=O)c1ccccc1C2=O [compound 72]
- ROS levels at higher dose [7]: increased ROS levels but not to the levels induced by the actives at comparable doses
- pfurA activation (fluorescence) [8]: less evident

Compound: CCCCCCCCn1c(C)nc2c1C(=O)c1ccccc1C2=O [compound 73]
- ROS levels at higher dose [7]: increased ROS levels but not to the levels induced by the actives at comparable doses
- pfurA activation (fluorescence) [8]: less evident

Compound: NNC(=O)c1ccncc1 [isoniazid, reference compound]
- time-kill outcome, colony growth by Day 28 ([3]; 4× MIC90 (12.8 μM)): comparable to the drug-free cultures
- piniBAC promoter activity (fluorescence) [6]: duly increased piniBAC promoter activity
- activity against katG mutant strain [18]: inactive against the mutant strain
